Entries after “also recorded” stand apart in the source; their conditions may differ.
Columns and labels:
[1] = system: A549 (lung adenocarcinoma); test: Cytotoxicity test (Cell Titer, 5 days), tumor line; assay type: cell-based, human
Procedure: (§1) Extracts (aqueous, ethyl, acidic) were obtained from 9 macrofungi species collected by INBio in the Costa Rican rainforests. All of them were subjected to a cytotoxicity test with two human cell lines: A549 (lung adenocarcinoma) and NL20 (immortalized, non-tumor line, obtained from the pulmonary epithelium). Cells were plated in 96-well plates at densities of 2,000 (A549) or 10,000 (NL20) cells per well. Once the cells were stuck to the bottom, serial concentrations of each extract were added and incubated at 37° C. for 5 days under a humidified atmosphere (85% relative humidity) and containing 5% CO2. Eight repeats (wells) were studied for each concentration. At the end of the incubation process, 20 μl of Cell Titer (Promega) were added per well and left for 4 h to allow the formation of the colored formazan salts. Colorimetric quantification was performed with a plate reader (POLARstar Omega) using a wavelength of 490 nm, following already published protocols (Coderch C, Diaz de C M, Zapico J M, Pelaez R, Larrayoz I M, Ramos A, et al. In silico identification and in vivo characterization of small molecule therapeutic hypothermia mimetics. Bioorg Med Chem 2017; 25:6597-604). […]

[2] = system: NL20 (immortalized, non-tumor line, pulmonary epithelium); test: Cytotoxicity test (Cell Titer, 5 days), non-tumor line; assay type: cell-based, human
Procedure: as §1

[3] = system: A549 xenograft tumors; test: Human lung cancer xenografts in immunosuppressed mice; assay type: in vivo, mice (NOD scid gamma)
Procedure: In this case, 20 male mice of the NOD scid gamma strain (NSG, Stock No. 005557, The Jackson Laboratory) were used. All of them were injected subcutaneously with 10 million A549 cells and left for 2 weeks until the tumors became measurable. Two groups of 10 mice each were randomized and marked as control group (diamonds) and TG10-treated group (squares). From this point, intratumor injections with 100 μl of PBS (control group) or 0.1 mg/ml of TG10 in PBS (treated group) were applied 3 times per week. Before each injection, tumor volumes were measured with a caliper. The mice were euthanized when the tumors reached a size incompatible with animal welfare.

[4] = system: actin cytoskeleton of NL20 cells; test: Modulation of the actin cytoskeleton (Bodipy-falacidine staining, confocal), non-tumor cells; assay type: cell-based, human; details: 0.03 mg/ml, 24-hour treatment
Excerpt: (§2) Many antitumor substances exert their effects by modulating the cytoskeleton of tumor cells, either acting on microtubules or on actin filaments (Zhang S, Menche D, Zahler S, Vollmer A M, Liebl J, Forster F. In vitro anti-cancer effects of the actin-binding natural compound rhizopodin. Pharmazie 2015; 70:610-5.). To check whether compound TG10 has a similar mechanism of action as other antitumor drugs, tumor cells (A549) and non-tumor cells (NL20) were subjected to a 24-hour treatment with 0.03 mg/ml TG10. At the end of this time, the cells were fixed with 10% formaldehyde for 10 min, permeabilized with 0.1% Triton X-100 for 10 min and exposed to 1: 200 Bodipy-falacidine and 1: 1000 DAPI (Molecular Probes) for 1 h. The images were obtained with a confocal laser microscope (TCS SP5, Leica).

[5] = system: actin cytoskeleton of A549 cells; test: Modulation of the actin cytoskeleton (Bodipy-falacidine staining, confocal), tumor cells; assay type: cell-based, human; details: 0.03 mg/ml, 24-hour treatment
Excerpt: as §2

| Compound | Antitumor activity against A549 (toxicity test of synthesized TGs) [1] | Toxicity to normal cells (NL20) [2] | Tumor growth versus control (in words) ([3]; intratumor 0.1 mg/ml in PBS, 3 times per week, FIG. 5) | Average tumor volume at the end of the experiment ([3]; intratumor 100 μl of 0.1 mg/ml in PBS, 3 times per week from day 15, end day 48, control 2900 mm^3, p<0.05) [mm^3] | Effect on actin fibers of NL20 cells [4] | Effect on actin fibers of A549 cells [5] |
| --- | --- | --- | --- | --- | --- | --- |
| 2S-TG (C18:2, 9z, 12z; C16:0; C18:1, 9z) [TG9] | no effect on cells | no effect on cells |  |  |  |  |
| CCCCC/C=C\C/C=C\CCCCCCCC(=O)OC[C@@H](COC(=O)CCCCCCC/C=C\CCCCCCCC)OC(=O)CCCCCCCCCCCCCCC [TG10, 2R-TG (C18:2, 9z, 12z; C16:0; C18:1, 9z)] | exhibited antitumor activity; also recorded: TG10 (active) | not toxic to normal cells | continued to grow, but at a slower rate | 1600 | maintained the filamentous structure of actin | completely lost the polymerized actin fibers |

— patent US20230181514A1, “NEW TRIGLYCERIDE OBTAINED FROM A MACROCYBE TITANS EXTRACT, CLINICAL APPLICATIONS AND PRODUCTION METHOD” (BIO TECH STARE GLOBAL S.R.L., priority 2020, published 2023)
